Assay results taken from publication PMC7287882, “Dual miRNases for Triple Incision of miRNA Target: Design Concept and Catalytic Performance” (Molecules, 2020).

Test system: miR-18a
Experiment: Ribonuclease activity assay, cleavage of miR-18a
Assay type: biochemical
Details: miRNA 1 µM, DC 20 µM, 37 °C
Protocol: The ribonuclease activity of DCs was studied under two different buffer conditions: buffer (1) contained 50 mM Tris-HCl, pH 7.0, 200 mM KCl, 1 mM EDTA, which imitates intracellular conditions (e.g., pH and potassium ions concentration) and was used in a number of studies previously; and buffer (2) contained 20 mM Tris-HCl, pH 7.8, 40 mM KCl, 8 mM MgCl2, 1 mM DTT, 0.02 mg/mL BSA, which is recommended for in vitro reactions with RNase H (Figure 3 and Figure 4).
Figure 3 Kinetics of cleavage of 5′-[^32P]-labeled miR-17, miR-18a, miR-155, miR-21 and miR-21_1 by corresponding DCs in the buffer (1), containing 50 mM Tris-HCl, pH 7.0, 200 mM KCl and 1 mM EDTA. (a–e) Radioautographs of 18% denaturing PAAG showing the cleavage products of miR-17, miR-18a, miR-155, miR-21 and miR-21_1, respectively. miRNA (1 µM) and corresponding DC (20 µM) were incubated at 37 °C for 72 h. Lanes Im and T1—imidazole ladder and partial RNA digestion with RNase T1, respectively; control–miRNA was incubated in the absence of the conjugate. The incubation time (in hours) is show at the top. SS gap–single-stranded region of miRNA formed upon hybridization with DC; (f) Kinetics of miRNAs cleavage by DCs depending on the incubation time. Data are presented as mean ± s.e.
Figure 4 Kinetics of cleavage of 5′-[^32P]-labeled miR-17, miR-18a, miR-155, miR-21, and miR-21_1 by corresponding DCs in the buffer (2), containing 20 mM Tris-HCl, pH 7.8, 40 mM KCl, 8 mM MgCl2, 1 mM DTT, 0.02 mg/mL BSA. (a–e) Radioautographs of 18% denaturing PAAG showing the cleavage products of miR-17, miR-18a, miR-155, miR-21 and miR-21_1, respectively. miRNA (1 µM) and corresponding DC (20 µM) were incubated at 37 °C for 72 h. Lanes Im and T1–imidazole ladder and partial RNA digestion with RNase T1, respectively; control–miRNA was incubated in the absence of the conjugate. The incubation time (in hours) is shown at the top. SS gap–single-stranded region of miRNA formed upon hybridization with DC; (f) Kinetics of miRNAs cleavage by DCs. Data are presented as mean ± s.e.
The reaction mixture (10 µL) contained 800 cpm (Cherenkov’s counting) of [^32P]-miRNA, 1 μM unlabeled miRNA, one of the conjugates at a concentration 10 or 20 μM and one of the buffers: 50 mM Tris-HCl, pH 7.0, 200 mM KCl, 1 mM EDTA–buffer (1) or 20 mM Tris-HCl, pH 7.8, 40 mM KCl, 8 mM MgCl2, 1 mM DTT, 0.02 mg/mL BSA–buffer (2). The mixture was incubated at 37 °C for 0–72 h and quenched by precipitation of RNA with 2% LiClO4 in acetone (90 µL). RNA was collected by centrifugation and dissolved in loading buffer (8 M urea, 0.025% bromophenol blue, 0.025% xylene cyanol). RNA cleavage products were analyzed in 18% PAAG/8M urea using TBE (100 mM Tris-borate, pH 8.3, 2 mM EDTA) as running buffer. To identify cleavage sites, an imidazole and T1-ladders produced by partial RNA cleavage with 2 M imidazole buffer (pH 7.0) and with RNase T1 [68], respectively, were run in parallel. To obtain quantitative data, gels were dried and analyzed using Molecular Imager FX. The total extent of RNA cleavage and the extent of RNA cleavage at each individual site were determined by using Quantity One software v.4.1 (Bio-Rad, Hercules, CA, USA).

TATCTGC–linker 1–[GRLRL]2–linker 2–ATGCACCTTA [miRNA-18a-DC, Dual oligonucleotide-peptide conjugate targeted to miR-18a: catalytic peptide [LRLRG]2 between two 2-aminoadenine-containing oligodeoxyribonucleotides]
Total Cleavage (buffer (1) 50 mM Tris-HCl pH 7.0, 200 mM KCl, 1 mM EDTA, 2 h): 0% | Total Cleavage (buffer (1) 50 mM Tris-HCl pH 7.0, 200 mM KCl, 1 mM EDTA, 6 h): 1% | Total Cleavage (buffer (1) 50 mM Tris-HCl pH 7.0, 200 mM KCl, 1 mM EDTA, 24 h): 3% | Total Cleavage (buffer (1) 50 mM Tris-HCl pH 7.0, 200 mM KCl, 1 mM EDTA, 48 h): 7% | Total Cleavage (buffer (1) 50 mM Tris-HCl pH 7.0, 200 mM KCl, 1 mM EDTA, 72 h): 8% | Total Cleavage (buffer (2) 20 mM Tris-HCl pH 7.8, 40 mM KCl, 8 mM MgCl2, 1 mM DTT, 0.02 mg/mL BSA, 2 h): 1,4% | Total Cleavage (buffer (2) 20 mM Tris-HCl pH 7.8, 40 mM KCl, 8 mM MgCl2, 1 mM DTT, 0.02 mg/mL BSA, 6 h): 5% | Total Cleavage (buffer (2) 20 mM Tris-HCl pH 7.8, 40 mM KCl, 8 mM MgCl2, 1 mM DTT, 0.02 mg/mL BSA, 24 h): 19% | Total Cleavage (buffer (2) 20 mM Tris-HCl pH 7.8, 40 mM KCl, 8 mM MgCl2, 1 mM DTT, 0.02 mg/mL BSA, 48 h): 23% | Total Cleavage (buffer (2) 20 mM Tris-HCl pH 7.8, 40 mM KCl, 8 mM MgCl2, 1 mM DTT, 0.02 mg/mL BSA, 72 h): 37% | rise of Kobs in buffer (2) compared to Kobs in buffer (1): 7 fold
